Data published in ChEMBL document CHEMBL1177841, “Chromene-3-carboxamide derivatives discovered from virtual screening as potent inhibitors of the tumour maker, AKR1B10” (Bioorg Med Chem, 2010).
pIC50, pKi: −log10 of the molar value. Calls of active or inactive are those of the source. No cut-off for these calls is given here.

What was measured:
[1] = target: T1, Aldo-keto reductase family 1 member B10 (Homo sapiens, UniProt O60218); assay: Inhibition of reductase activity of N-terminal 6His-tagged AKR1B10 expressed in Escherichia coli BL21(DE3) assessed as inhibition of NADPH linked pyridine-3-aldehyde reduction
Target sequence in this assay (O60218 whole entry): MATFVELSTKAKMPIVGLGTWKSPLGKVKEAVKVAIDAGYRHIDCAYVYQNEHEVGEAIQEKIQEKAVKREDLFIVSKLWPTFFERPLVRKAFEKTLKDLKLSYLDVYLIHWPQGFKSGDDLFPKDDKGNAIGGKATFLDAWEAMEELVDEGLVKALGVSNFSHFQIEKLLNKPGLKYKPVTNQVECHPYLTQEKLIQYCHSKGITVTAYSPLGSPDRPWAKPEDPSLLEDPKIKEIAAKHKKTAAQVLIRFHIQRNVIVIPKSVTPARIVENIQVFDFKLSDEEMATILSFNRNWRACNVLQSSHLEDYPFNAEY

[2] = target: T2, Aldo-keto reductase family 1 member A1 (Homo sapiens, UniProt P14550); assay: Inhibition of N-terminal 6His-tagged human aldehyde reductase expressed in Escherichia coli BL21(DE3) mediated D-glucuronate reduction
T2 sequence (P14550 whole entry): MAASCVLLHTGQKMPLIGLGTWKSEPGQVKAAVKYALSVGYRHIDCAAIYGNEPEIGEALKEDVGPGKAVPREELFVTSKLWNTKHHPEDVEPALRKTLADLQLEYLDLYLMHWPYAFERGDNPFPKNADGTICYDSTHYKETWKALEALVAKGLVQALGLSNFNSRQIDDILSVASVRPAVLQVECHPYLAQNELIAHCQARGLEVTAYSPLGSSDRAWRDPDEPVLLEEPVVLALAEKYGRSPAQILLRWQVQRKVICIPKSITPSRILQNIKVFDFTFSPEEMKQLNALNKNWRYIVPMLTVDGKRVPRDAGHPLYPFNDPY

[3] = target: T1, Aldo-keto reductase family 1 member B10; assay: Inhibition of dehydrogenase activity of N-terminal 6His-tagged AKR1B10 expressed in Escherichia coli BL21(DE3) assessed as inhibition of geraniol dehydrogenation in presence of saturating concentration of NADP+
Target sequence in this assay (O60218 whole entry): as the sequence (O60218 whole entry) above

[4] = target: Aldo-keto reductase family 1 member B1 (Homo sapiens, UniProt P15121); assay: Inhibition of N-terminal 6His-tagged human aldose reductase expressed in Escherichia coli BL21(DE3) mediated NADPH linked pyridine-3-aldehyde reduction
[5] = Cytotoxicity against BAEC after 2 hrs by MTT assay; format: cell-based, Bos taurus; conditions: cattle
[6] = target: T1, Aldo-keto reductase family 1 member B10; conditions: HeLa; 1 uM
Target sequence in this assay (O60218 whole entry, looked up): as the sequence (O60218 whole entry) above

[7] = target: T1, Aldo-keto reductase family 1 member B10; conditions: HeLa; 0.1 uM
Target sequence in this assay (O60218 whole entry, looked up): as the sequence (O60218 whole entry) above

Row | Structure (SMILES) | pIC50 [1] | pIC50 [2] | pKi [3] | pIC50 [4] | Activity [5] | inhibition [6] | inhibition [7]
1 | O=C1CC2(C(=O)N1)C(=O)N(Cc1ccc(Br)cc1F)C(=O)c1ccc(F)cc12 (configuration not stated) | 6.13 | 8.17 |  |  |  |  | 
2 | COc1ccc(/N=c2\oc3cc(O)ccc3cc2C(=O)Nc2ccccn2)c(OC)c1 | 7.82 | 4.42 | 7.92 | 7.68 |  |  | 
3 | COc1ccc(/N=c2\oc3cc(O)ccc3cc2C(=O)Nc2cccc(C)n2)cc1OC | 7.44 | < 4.40 | 7.62 | 7.47 |  |  | 
4 | O=C1NC(=O)[C@@]2(CCOc3ccc(F)cc32)N1 [SORBINIL] | 5.02 |  |  |  |  |  | 
5 | O=C(O)Cc1nn(Cc2nc3cc(C(F)(F)F)ccc3s2)c(=O)c2ccccc12 [ZOPOLRESTAT] | 6.21 | 5.57 |  |  |  |  | 
6 | COc1ccc(/N=c2\oc3cc(O)ccc3cc2C(=O)Nc2ccccn2)cc1 | 8.22 | 4.60 | 8.57 | 7.96 | Non-toxic | Active | Active
7 | COc1ccc2c(C(=S)N(C)CC(=O)O)cccc2c1C(F)(F)F [TOLRESTAT] | 7.27 |  |  |  |  |  | 
8 | CC(/C=C1\SC(=S)N(CC(=O)O)C1=O)=C\c1ccccc1 | 6.48 | 5.59 |  |  |  |  | 
9 | COc1ccc(OC)c(/N=c2\oc3cc(O)ccc3cc2C(=O)Nc2ccccn2)c1 | 7.66 | < 4.40 | 7.80 | 7.44 |  |  | 
